According to ChEMBL document CHEMBL3044768, “Chemistry, toxicity and antifeedant activity of the resin of Flourensia thurifera” (1997):
Converted amounts (≈) assume the structure as drawn.

Experiments:
Spodoptera littoralis = experiment: Antifeedant activity against fifth instar larvae of Spodoptera littoralis fed on compound-treated lettuce leaf at 10 ug/cm'2 by leaf-disk method; assay type: functional; set-up: unit not given here
Artemia salina = experiment: Toxicity against Artemia salina (brine shrimp) after 24 hr; assay type: functional

SMILES | FR50 (Spodoptera littoralis) | LC50 (Artemia salina)
COc1cc2c(cc1C(C)=O)C=CC(C)(C)O2 [ENCECALIN] | 0.08 | 0.9 µg/mL (≈ 3.87 µM)
COc1cc(O)c2c(=O)c(O)c(-c3ccc(O)c(O)c3)oc2c1 [RHAMNETIN] | 71 | 
CC(=O)c1cc2c(cc1O)OC(C)(C)C=C2 [DEMETHYLENCECALIN] | 0.4 | 17.6 µg/mL (≈ 80.6 µM)
C=C(C)c1cc2cc(C(C)=O)c(O)cc2o1 [EUPARIN] | 0.42 | 58.9 µg/mL (≈ 272 µM)
COC(=O)/C=C/c1ccc(OC(C)=O)c(C/C=C(\C)COC(C)=O)c1 |  | 39.8 µg/mL (≈ 115 µM)
CC(C)=CCOc1cc2oc(=O)ccc2cc1O [PRENYLETIN] | 1.06 | 3.8 µg/mL (≈ 15.4 µM)
CC(C)=CCc1cc(/C=C/C(=O)O)ccc1O [DRUPANIN] | 78 | 104 µg/mL (≈ 449 µM)
COc1cc2ccc(=O)oc2cc1OCC=C(C)C [PRENYLETIN 6-METHYL ETHER] | 0.43 | 17.6 µg/mL (≈ 67.6 µM)
COc1cc2ccc(=O)oc2c(O)c1OCC=C(C)C [CAPENSIN] | 1.04 | 52.5 µg/mL (≈ 190 µM)
